ChEMBL document CHEMBL1201862, “PubChem BioAssay data set” (2004)
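Results reflect a 48-hour exposure of cells in 96-well plates to compound at five concentrations. GI50 marks 50% less growth.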 Activity calls are given as the source filed them. Cut-off read from the data, not from the text of the source: active = GI50 up to about 1.1 µM and inactive = higher.

Experiments:
Assay in all cases: NCI anticancer screen, dose series, 48 h
SK-MEL-2 = tested on: SK-MEL-2
SF-539 = tested on: SF-539
NCI-H460 = tested on: NCI-H460
MCF7 = tested on: MCF7
Hs-578T = tested on: Hs-578T
K562 = tested on: K562
MDA-N = tested on: MDA-N
MOLT-4 = tested on: MOLT-4
HOP-62 = tested on: HOP-62
HCT-15 = tested on: HCT-15
MDA-MB-231 = tested on: MDA-MB-231
LOX IMVI = tested on: LOX IMVI
OVCAR-4 = tested on: OVCAR-4
CCRF-CEM = tested on: CCRF-CEM
HT-29 = tested on: HT-29
SK-OV-3 = tested on: SK-OV-3
786-0 = tested on: 786-0
SR = tested on: SR
SW-620 = tested on: SW-620
NCI-H226 = tested on: NCI-H226

| SMILES | GI50 (SK-MEL-2) | GI50 (SF-539) | GI50 (NCI-H460) | GI50 (MCF7) | GI50 (Hs-578T) | GI50 (K562) | GI50 (MDA-N) | GI50 (MOLT-4) | GI50 (HOP-62) | GI50 (HCT-15) [µM] | GI50 (MDA-MB-231) | GI50 (LOX IMVI) | GI50 (OVCAR-4) | GI50 (CCRF-CEM) | GI50 (HT-29) | GI50 (SK-OV-3) | GI50 (786-0) | GI50 (SR) | GI50 (SW-620) | GI50 (NCI-H226) |
| --- | --- | --- | --- | --- | --- | --- | --- | --- | --- | --- | --- | --- | --- | --- | --- | --- | --- | --- | --- | --- |
| N=C1C(=N)c2ccccc2-c2ccccc21 | 1.55 µM (inactive) | 0.787 µM (active) | 1.38 µM (inactive) | 0.792 µM (active) | 2.64 µM (inactive) | 0.513 µM (active) | 0.177 µM (active) | 0.337 µM (active) | 1.67 µM (inactive) | 1.55 | 0.313 µM (active) | 0.31 µM (active) | 1.45 µM (inactive) | 0.376 µM (active) | 1.83 µM (inactive) | 1.7 µM (inactive) | 2.09 µM (inactive) | 0.695 µM (active) | 1 µM (active) | 1.82 µM (inactive) |
| O=C1CSC(=S)N1/N=C/c1ccc(Cl)c([N+](=O)[O-])c1 | 29.8 µM (inactive) | 32.8 µM (inactive) | 41.3 µM (inactive) | 13.3 µM (inactive) | 37.8 µM (inactive) | 38.3 µM (inactive) | 22.4 µM (inactive) | 31.1 µM (inactive) | 30.6 µM (inactive) | 20.2 | 21.3 µM (inactive) | 22.2 µM (inactive) | 22.5 µM (inactive) | 7.35 µM (inactive) | 39.6 µM (inactive) | 36.6 µM (inactive) | 38.6 µM (inactive) | 22.5 µM (inactive) | 33.7 µM (inactive) | 36.4 µM (inactive) |
| Cc1ccc(S(=O)(=O)N(CC(O)COc2ccccc2)c2c(F)cccc2F)cc1 (stereo not given) | 16.6 µM (inactive) | 16.9 µM (inactive) | 15.1 µM (inactive) | 15.7 µM (inactive) | 20 µM (inactive) | 37.3 µM (inactive) | 15.8 µM (inactive) | 28.3 µM (inactive) | 19.2 µM (inactive) | 16.1 | 17.9 µM (inactive) | 15.2 µM (inactive) | 13.2 µM (inactive) | 28.7 µM (inactive) | 17.4 µM (inactive) | 18.5 µM (inactive) | 20.7 µM (inactive) | 21.8 µM (inactive) | 23 µM (inactive) | 21.9 µM (inactive) |
| CCCNC(=O)Cn1c(-c2ccccc2)cc2ccccc21 | 69.8 µM (inactive) | > 100 µM (inactive) | 92.3 µM (inactive) | 37.5 µM (inactive) | 31.8 µM (inactive) | > 100 µM (inactive) | 83.4 µM (inactive) | 85.1 µM (inactive) | 67.3 µM (inactive) | 75 | 32.7 µM (inactive) | > 100 µM (inactive) | 24.4 µM (inactive) | > 100 µM (inactive) | 93.8 µM (inactive) | 29.4 µM (inactive) | 54 µM (inactive) | > 100 µM (inactive) | > 100 µM (inactive) | > 100 µM (inactive) |
| Cc1cccc(C)c1Nc1nc(C)c(C(=O)CC(=O)C(=O)Nc2c(C(C)C)cccc2C(C)C)s1 | > 100 µM (inactive) | > 100 µM (inactive) | > 100 µM (inactive) | > 100 µM (inactive) | > 100 µM (inactive) | > 100 µM (inactive) | > 100 µM (inactive) | 72.9 µM (inactive) | > 100 µM (inactive) | > 100 | > 100 µM (inactive) | > 100 µM (inactive) | > 100 µM (inactive) |  | > 100 µM (inactive) | 89.7 µM (inactive) | > 100 µM (inactive) | 69.3 µM (inactive) | > 100 µM (inactive) | > 100 µM (inactive) |
| COP(=O)(OC)C1=c2c(C)noc2=C2C=COC2C1=O (stereo not given) | > 100 µM (inactive) | > 100 µM (inactive) |  | > 100 µM (inactive) | 45.9 µM (inactive) | > 100 µM (inactive) | > 100 µM (inactive) | > 100 µM (inactive) | > 100 µM (inactive) | > 100 | 56.1 µM (inactive) | > 100 µM (inactive) | > 100 µM (inactive) | > 100 µM (inactive) | > 100 µM (inactive) | > 100 µM (inactive) | > 100 µM (inactive) | > 100 µM (inactive) | > 100 µM (inactive) | > 100 µM (inactive) |
| Oc1cccc2c(Br)ccnc12 | 11.4 µM (inactive) | 3.63 µM (inactive) | 3.57 µM (inactive) | 4.43 µM (inactive) | 8.55 µM (inactive) | 0.593 µM (active) | 5.71 µM (inactive) | 0.855 µM (active) | 8.73 µM (inactive) | 2.27 | 2.75 µM (inactive) | 0.713 µM (active) | 2.55 µM (inactive) | 0.38 µM (active) | 5.4 µM (inactive) | 26.7 µM (inactive) | 17.1 µM (inactive) | 0.378 µM (active) | 3.51 µM (inactive) | 7.1 µM (inactive) |
| COc1ccc2oc(OC)c(CC=C(C)C)c(=O)c2c1C | > 100 µM (inactive) | > 100 µM (inactive) | > 100 µM (inactive) | > 100 µM (inactive) | > 100 µM (inactive) | > 100 µM (inactive) | > 100 µM (inactive) | > 100 µM (inactive) | > 100 µM (inactive) | > 100 | > 100 µM (inactive) | > 100 µM (inactive) |  | > 100 µM (inactive) | > 100 µM (inactive) | > 100 µM (inactive) | > 100 µM (inactive) | > 100 µM (inactive) | > 100 µM (inactive) | > 100 µM (inactive) |
| C[C@]12CCC(=O)O[C@H]1CCCCO2 | > 100 µM (inactive) | > 100 µM (inactive) | > 100 µM (inactive) | > 100 µM (inactive) | > 100 µM (inactive) | > 100 µM (inactive) | > 100 µM (inactive) | > 100 µM (inactive) | > 100 µM (inactive) | > 100 | > 100 µM (inactive) | > 100 µM (inactive) |  | > 100 µM (inactive) | > 100 µM (inactive) | > 100 µM (inactive) | > 100 µM (inactive) | > 100 µM (inactive) | > 100 µM (inactive) | > 100 µM (inactive) |
| O=C1CN(c2ccccc2)Cc2nc(Cl)ccc2N1 | > 100 µM (inactive) | > 100 µM (inactive) | > 100 µM (inactive) | > 100 µM (inactive) | 61.9 µM (inactive) | > 100 µM (inactive) | > 100 µM (inactive) | > 100 µM (inactive) | > 100 µM (inactive) | > 100 | > 100 µM (inactive) | > 100 µM (inactive) | > 100 µM (inactive) | > 100 µM (inactive) | > 100 µM (inactive) | > 100 µM (inactive) | > 100 µM (inactive) | > 100 µM (inactive) | > 100 µM (inactive) | > 100 µM (inactive) |
| O=C(O)CCC(=O)c1ccc2ccc3cccc4ccc1c2c34 | > 100 µM (inactive) | 27.7 µM (inactive) | 39.3 µM (inactive) | 54.3 µM (inactive) | > 100 µM (inactive) | 81.7 µM (inactive) | > 100 µM (inactive) | 60.3 µM (inactive) | 84.5 µM (inactive) | 38 | 64 µM (inactive) | 71.8 µM (inactive) | > 100 µM (inactive) | 45.3 µM (inactive) | 63.8 µM (inactive) | > 100 µM (inactive) | 68.9 µM (inactive) | 45.7 µM (inactive) | 59.2 µM (inactive) | 49 µM (inactive) |
| O=C(O)c1ccc(C(=O)c2ccccc2C(=O)O)cc1C(=O)O | > 100 µM (inactive) | > 100 µM (inactive) | > 100 µM (inactive) | > 100 µM (inactive) | > 100 µM (inactive) | > 100 µM (inactive) | > 100 µM (inactive) | > 100 µM (inactive) | > 100 µM (inactive) | > 100 | > 100 µM (inactive) | > 100 µM (inactive) | > 100 µM (inactive) | > 26.4 µM (inactive) | > 100 µM (inactive) | > 100 µM (inactive) | > 100 µM (inactive) | > 100 µM (inactive) | > 100 µM (inactive) | > 100 µM (inactive) |
| Cn1c(N(CCO)CCO)cnc1[N+](=O)[O-] | > 100 µM (inactive) | > 100 µM (inactive) | > 100 µM (inactive) | > 100 µM (inactive) | > 100 µM (inactive) | > 100 µM (inactive) | > 100 µM (inactive) | > 100 µM (inactive) | > 100 µM (inactive) | > 100 | > 100 µM (inactive) | > 100 µM (inactive) | > 100 µM (inactive) | > 100 µM (inactive) | > 100 µM (inactive) | > 100 µM (inactive) | > 100 µM (inactive) | > 100 µM (inactive) | > 100 µM (inactive) | > 100 µM (inactive) |
| CCOC(=O)c1cn2c(n1)sc1cc(C)c(C)cc12 | 31.6 µM (inactive) | 14.6 µM (inactive) | 42.8 µM (inactive) | 23.6 µM (inactive) | 27.6 µM (inactive) | 14.4 µM (inactive) | 6.04 µM (inactive) | 29 µM (inactive) | 17.1 µM (inactive) | 27.9 | 24.3 µM (inactive) | 29.1 µM (inactive) | > 100 µM (inactive) | 24.1 µM (inactive) | 18 µM (inactive) | 26.5 µM (inactive) | 19 µM (inactive) | 6.68 µM (inactive) | 20.1 µM (inactive) | 18.9 µM (inactive) |
| CC(C)=CCC/C(=C\CC/C(=C\CCc1ccoc1)C(=O)O)C(=O)O | > 100 µM (inactive) | > 100 µM (inactive) |  | > 100 µM (inactive) | > 100 µM (inactive) | > 100 µM (inactive) | > 100 µM (inactive) | > 100 µM (inactive) | > 100 µM (inactive) | > 100 | > 100 µM (inactive) | > 100 µM (inactive) | > 100 µM (inactive) | > 100 µM (inactive) | > 100 µM (inactive) | > 100 µM (inactive) | > 100 µM (inactive) | > 100 µM (inactive) | > 100 µM (inactive) | > 100 µM (inactive) |
